We go through 36 molecules from patent US20230002397A1, “SMALL MOLECULE DEGRADERS OF HELIOS AND METODS OF USE” (DANA-FARBER CANCER INSTITUTE, INC., priority 2019, published 2023).

Each structure is given as a SMILES string. Like-named read-outs stand apart in the source and are kept apart here.

In the test the target is T1, IKZF2 (Homo sapiens, UniProt Q96SW2+Q9UKS7).
T1 construct: CRISPR/Cas9—mediated insertion of the HiBiT peptide tag (Promega™) to the N-terminus of the IKZF2 gene locus; endogenous in cells; host or cells: MOLT4 cells, with CRISPR/Cas9 knock-in of HiBiT at the endogenous IKZF2 locus
T1 sequence (Q9UKS7 whole entry): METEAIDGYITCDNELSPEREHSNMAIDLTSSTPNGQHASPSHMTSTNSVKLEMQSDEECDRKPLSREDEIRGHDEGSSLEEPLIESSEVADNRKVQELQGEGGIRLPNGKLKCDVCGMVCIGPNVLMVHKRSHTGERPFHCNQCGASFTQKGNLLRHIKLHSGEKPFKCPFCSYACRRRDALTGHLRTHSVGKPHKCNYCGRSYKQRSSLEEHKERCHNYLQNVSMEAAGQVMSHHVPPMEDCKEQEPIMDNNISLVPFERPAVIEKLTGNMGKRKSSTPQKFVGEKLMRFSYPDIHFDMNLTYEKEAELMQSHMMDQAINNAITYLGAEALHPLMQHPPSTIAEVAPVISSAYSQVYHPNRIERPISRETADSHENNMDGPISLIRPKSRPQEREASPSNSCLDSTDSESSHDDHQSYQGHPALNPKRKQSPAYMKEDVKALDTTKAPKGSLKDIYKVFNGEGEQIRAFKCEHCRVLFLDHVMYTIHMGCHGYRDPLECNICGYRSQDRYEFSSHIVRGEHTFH
T1 sequence (Q96SW2 whole entry): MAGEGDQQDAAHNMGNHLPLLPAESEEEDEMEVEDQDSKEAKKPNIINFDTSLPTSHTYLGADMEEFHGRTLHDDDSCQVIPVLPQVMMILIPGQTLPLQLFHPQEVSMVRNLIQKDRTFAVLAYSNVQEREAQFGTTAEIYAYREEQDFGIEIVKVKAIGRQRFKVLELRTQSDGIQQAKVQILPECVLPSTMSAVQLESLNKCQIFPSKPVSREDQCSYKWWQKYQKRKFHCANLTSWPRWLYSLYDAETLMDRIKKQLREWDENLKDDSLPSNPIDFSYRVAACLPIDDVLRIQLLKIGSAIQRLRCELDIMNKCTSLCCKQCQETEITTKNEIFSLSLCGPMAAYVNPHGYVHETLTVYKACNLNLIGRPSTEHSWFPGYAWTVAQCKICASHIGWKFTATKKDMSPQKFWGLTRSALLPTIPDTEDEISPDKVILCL
T1 sequence (Q16531 whole entry partner): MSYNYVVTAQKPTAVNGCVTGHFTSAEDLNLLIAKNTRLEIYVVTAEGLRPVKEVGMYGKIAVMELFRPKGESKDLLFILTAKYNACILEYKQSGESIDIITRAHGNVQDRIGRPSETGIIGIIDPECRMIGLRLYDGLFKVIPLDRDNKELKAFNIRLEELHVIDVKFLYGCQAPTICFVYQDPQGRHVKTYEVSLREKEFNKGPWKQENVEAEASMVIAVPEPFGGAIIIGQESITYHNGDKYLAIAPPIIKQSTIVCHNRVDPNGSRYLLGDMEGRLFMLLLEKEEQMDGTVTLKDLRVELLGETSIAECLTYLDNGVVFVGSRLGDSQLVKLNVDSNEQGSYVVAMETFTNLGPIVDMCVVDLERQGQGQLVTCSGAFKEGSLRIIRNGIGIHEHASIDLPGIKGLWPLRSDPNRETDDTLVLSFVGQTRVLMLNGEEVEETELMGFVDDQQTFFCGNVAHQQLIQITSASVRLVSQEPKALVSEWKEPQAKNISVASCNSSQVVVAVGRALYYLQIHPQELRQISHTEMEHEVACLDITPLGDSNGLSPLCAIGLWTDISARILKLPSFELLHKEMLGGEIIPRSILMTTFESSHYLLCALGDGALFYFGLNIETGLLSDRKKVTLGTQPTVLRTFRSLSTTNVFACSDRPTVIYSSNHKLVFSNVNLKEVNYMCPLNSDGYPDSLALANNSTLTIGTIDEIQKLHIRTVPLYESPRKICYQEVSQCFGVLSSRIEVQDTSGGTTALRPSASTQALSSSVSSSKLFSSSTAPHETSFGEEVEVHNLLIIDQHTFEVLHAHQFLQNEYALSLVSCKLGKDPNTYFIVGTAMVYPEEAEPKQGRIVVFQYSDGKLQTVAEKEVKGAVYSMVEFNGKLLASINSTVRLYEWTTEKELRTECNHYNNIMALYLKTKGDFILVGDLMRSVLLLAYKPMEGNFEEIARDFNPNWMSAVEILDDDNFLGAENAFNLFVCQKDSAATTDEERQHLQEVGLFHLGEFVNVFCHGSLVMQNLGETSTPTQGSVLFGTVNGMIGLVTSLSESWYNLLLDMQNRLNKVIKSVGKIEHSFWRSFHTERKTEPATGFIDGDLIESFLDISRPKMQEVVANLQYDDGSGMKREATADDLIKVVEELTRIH
Put plainly: HiBit-IKZF2 assay (HiBiT-Helios degradation in MOLT4 cells). It is filed as cell-based. The note with it: for Dmax: 10 μM to 0.00026 μM; for DC50: concentration at which 50% of HiBiT-Helios degradation was achieved. How it is done:
The HiBiT protein tagging system was applied to MOLT4 cells via a CRISPR/Cas9—mediated insertion of the HiBiT peptide tag (Promega™) to the N-terminus of the IKZF2 gene locus (Neon™ Transfection System). The resulting HiBiT-Helios stable cell line was treated with the following compounds in triplicates following a 13-point concentration scheme ranging from 10 μM to 0.00026 μM. At the indicated timepoints, the Nano-Glo® HiBiT Lytic Detection System (Promega™) was utilized for detecting bioluminescence of the HiBiT tag in treated cells: abundance of the tag is proportionate to the level of luminescence. Following normalization to DMSO, dose-response curves were plotted (GraphPad Prism) to determine the concentration points at which 50% of HiBiT-Helios degradation was achieved by each compound. The extent of degradation (range of luminescence) from the highest to lowest concentration points was calculated to determine the Dmax.

[1] abbreviates: MOLT-4, extent of degradation from highest to lowest concentration, read-out: Dmax.

On to `O=C1CCC(N2Cc3cc(C4CCN(Cc5cnc(Nc6ccccc6)o5)CC4)ccc3C2=O)C(=O)N1` (stereo not drawn) [Compound 191], for which the DC50 lay within 10 to 30 nM. The Dmax under setting [1] was in the range of 50 to 70%.

Molecule `O=C1CCC(N2Cc3cc(C4(O)CCN(Cc5cccc(Oc6ccccc6)c5)CC4)ccc3C2=O)C(=O)N1` (stereo not drawn) [Compound 193] registered a DC50 of under 10 nM. The greatest degradation seen (Dmax) under setting [1] is over 70%.

Molecule `O=C1CCC(N2Cc3cc(C4(O)CCN(Cc5cccnc5Oc5ccccc5)CC4)ccc3C2=O)C(=O)N1` (stereo not drawn) [Compound 195] had a DC50 of under 10 nM. Besides, the Dmax under setting [1] lay within 50 to 70%.

In turn, `O=C1CCC(N2Cc3cc(C4(O)CCN(Cc5ccnc(Nc6ccccc6)n5)CC4)ccc3C2=O)C(=O)N1` (stereo not drawn) [Compound 196] returned a DC50 of under 10 nM. In addition, the Dmax under setting [1] was over 70%.

Molecule `O=C1CCC(N2Cc3cc(C4(O)CCN(Cc5ccc(F)c(Nc6ccccc6)n5)CC4)ccc3C2=O)C(=O)N1` (stereo not drawn) [Compound 197] displayed a DC50 of under 10 nM. In addition, the Dmax under setting [1] is 50 to 70%.

With `O=C1CCC(N2Cc3cc(C4(O)CCN(Cc5ccnc(Nc6ccccc6)c5F)CC4)ccc3C2=O)C(=O)N1` (stereo not drawn) [Compound 198], the DC50 was under 10 nM. Moreover, the Dmax under setting [1] was over 70%.

Molecule `O=C1CCC(N2Cc3cc(C4(O)CCN(Cc5ccc6c(c5)C(=O)N(c5ccccc5)C6)CC4)ccc3C2=O)C(=O)N1` (stereo not drawn) [Compound 200, 3-(5-(4-hydroxy-1-((3-oxo-2-phenylisoindolin-5-yl)methyl)piperidin-4-yl)-1-oxoisoindolin-2-yl)piperidine-2,6-dione] came in with a DC50 of under 10 nM. Moreover, the Dmax under setting [1] is over 70%.

Molecule `O=C1CCC(N2Cc3cc(C4(O)CCN(Cc5cccc6c5CCN(c5ccccn5)C6=O)CC4)ccc3C2=O)C(=O)N1` (stereo not drawn) [Compound 202] gave a DC50 of under 10 nM. The Dmax under setting [1] is 50 to 70%.

As for `O=C1CCC(N2Cc3cc(C4(O)CCN(Cc5ccc6ccccc6c5)CC4)ccc3C2=O)C(=O)N1` (stereo not drawn) [Compound 203], the DC50 is under 10 nM. The Dmax under setting [1] is over 70%.

For the molecule `O=C1CCC(N2Cc3cc(C4(O)CCN(Cc5cccc6ccccc56)CC4)ccc3C2=O)C(=O)N1` (stereo not drawn) [Compound 204], the DC50 is under 10 nM. For the same molecule, the Dmax under setting [1] is over 70%.

As to `O=C1CCC(N2Cc3cc(C4(O)CCN(Cc5cc(F)cc(F)c5)CC4)ccc3C2=O)C(=O)N1` (stereo not drawn) [Compound 205], the DC50 was under 10 nM. The Dmax under setting [1] was over 70%.

`O=C1CCC(N2Cc3cc(C4(O)CCN(Cc5ccc(-c6ccccc6)cc5)CC4)ccc3C2=O)C(=O)N1` (stereo not drawn) [Compound 206] registered a DC50 of under 10 nM. In addition, under setting [1], the Dmax was over 70%.

In the case of `O=C1CCC(N2Cc3cc(C4(O)CCN(Cc5cccc(Cl)c5)CC4)ccc3C2=O)C(=O)N1` (stereo not drawn) [Compound 207], the DC50 is under 10 nM. Besides, under setting [1], the Dmax was over 70%.

As for `O=C1CCC(N2Cc3cc(C4(O)CCN(Cc5cccc(OC(F)F)c5)CC4)ccc3C2=O)C(=O)N1` (stereo not drawn) [Compound 208], the DC50 was under 10 nM. In addition, the Dmax under setting [1] was over 70%.

On to `N#CC1(COc2ccccc2CN2CCC(O)(c3ccc4c(c3)CN(C3CCC(=O)NC3=O)C4=O)CC2)CC1` (stereo not drawn) [Compound 209], for which the DC50 lay within 10 to 30 nM. The Dmax under setting [1] was in the range of 50 to 70%.

`O=C1CCC(N2Cc3cc(C4(O)CCN(Cc5ccccc5)C4)ccc3C2=O)C(=O)N1` (stereo not drawn) [Compound 210] displayed a DC50 of 30 to 150 nM. Besides, the Dmax under setting [1] lay within 30 to 50%.

Take `O=C1CCC(N2Cc3cc(C4CCN(Cc5ccccc5)C(CO)C4)ccc3C2=O)C(=O)N1` (stereo not drawn) [Compound 212]: the DC50 lay in the range of 30 to 150 nM. Further, the Dmax under setting [1] was in the range of 50 to 70%.

Turning to `O=C1CCC(N2Cc3cc(C4CCN(Cc5ccc6c(c5F)C(=O)N(c5ccccc5)C6)CC4)ccc3C2=O)C(=O)N1` (stereo not drawn) [Compound 213], the DC50 was in the range of 10 to 30 nM. Further, the Dmax entry (extent of degradation from highest to lowest concentration) was “++ (“++” is from >50% to <70%)”.

In the case of `Cc1ccccc1N1Cc2ccc(CN3CCC(c4ccc5c(c4)CN(C4CCC(=O)NC4=O)C5=O)CC3)cc2C1=O` (stereo not drawn) [Compound 214], the DC50 fell in the range of 10 to 30 nM. For the same molecule, the Dmax under setting [1] was 50 to 70%.

Take `Cc1cccc(N2Cc3ccc(CN4CCC(c5ccc6c(c5)CN(C5CCC(=O)NC5=O)C6=O)CC4)cc3C2=O)c1` (stereo not drawn) [Compound 215]: the DC50 fell in the range of 10 to 30 nM. In addition, under setting [1], the Dmax was over 70%.

Consider `Cc1ccc(N2Cc3ccc(CN4CCC(c5ccc6c(c5)CN(C5CCC(=O)NC5=O)C6=O)CC4)cc3C2=O)cc1` (stereo not drawn) [Compound 216], for which the DC50 is under 10 nM. Further, the Dmax under setting [1] is 50 to 70%.

Regarding `O=C1CCC(N2Cc3cc(C4CCN(Cc5ccc6c(c5)C(=O)N(c5cccc(O)c5)C6)CC4)ccc3C2=O)C(=O)N1` (stereo not drawn) [Compound 217], the DC50 was under 10 nM. For the same molecule, the greatest degradation seen (Dmax) under setting [1] is over 70%.

Take `O=C1CCC(N2Cc3cc(C4CCN(Cc5ccc6c(c5)C(=O)N(c5ccccc5O)C6)CC4)ccc3C2=O)C(=O)N1` (stereo not drawn) [Compound 218]: the DC50 lay in the range of 10 to 30 nM. Moreover, the Dmax under setting [1] is over 70%.

For the molecule `O=C1CCC(N2Cc3cc(C4(O)CCN(Cc5ccc6c(c5)C(=O)N(c5ccccc5O)C6)CC4)ccc3C2=O)C(=O)N1` (stereo not drawn) [Compound 219], the DC50 is under 10 nM. Moreover, under setting [1], the Dmax was over 70%.

Molecule `O=C1CCC(N2Cc3cc(C4(O)CCN(Cc5ccc6c(c5)C(=O)N(c5ccccn5)C6)CC4)ccc3C2=O)C(=O)N1` (stereo not drawn) [Compound 220] had a DC50 of under 10 nM. Besides, the Dmax under setting [1] was over 70%.

`O=C1CCC(N2Cc3cc(C4CCN(Cc5ccc6c(c5)C(=O)N(c5ncccc5F)C6)CC4)ccc3C2=O)C(=O)N1` (stereo not drawn) [Compound 221] came in with a DC50 of under 10 nM. The Dmax under setting [1] was in the range of 50 to 70%.

For the molecule `O=C1CCC(N2Cc3cc(C4CCN(Cc5ccc6c(c5)C(=O)N(c5cnsc5)C6)CC4)ccc3C2=O)C(=O)N1` (stereo not drawn) [Compound 222], the DC50 is under 10 nM. Further, under setting [1], the Dmax lay in the range of 50 to 70%.

In turn, `O=C1CCC(N2Cc3cc(C4CCN(Cc5ccc6c(c5)C(=O)N(c5ccsn5)C6)CC4)ccc3C2=O)C(=O)N1` (stereo not drawn) [Compound 223] displayed a 50% degradation concentration (DC50) of 10 to 30 nM. In addition, under setting [1], the Dmax was 50 to 70%.

With `O=C1CCC(N2Cc3cc(C4CCN(Cc5ccc6c(c5)C(=O)N(c5ccns5)C6)CC4)ccc3C2=O)C(=O)N1` (stereo not drawn) [Compound 224], the DC50 was under 10 nM. Also, the Dmax under setting [1] was over 70%.

On to `O=C1CCC(N2Cc3cc(C4(O)CCN(Cc5ccc6c(c5)C(=O)N(c5ccns5)C6)CC4)ccc3C2=O)C(=O)N1` (stereo not drawn) [Compound 225], for which the DC50 was under 10 nM. For the same molecule, the Dmax under setting [1] is over 70%.

`O=C1CCC(N2Cc3cc(C4CCN(Cc5cccc(Nc6ncc(F)cn6)c5)CC4)ccc3C2=O)C(=O)N1` (stereo not drawn) [Compound 226] yielded a DC50 of 10 to 30 nM. The Dmax under setting [1] lay within 30 to 50%.

`O=C1CCC(N2Cc3cc(C4CCN(Cc5cccc(Nc6ncc(Cl)cn6)c5)CC4)ccc3C2=O)C(=O)N1` (stereo not drawn) [Compound 227] displayed a DC50 of under 10 nM. Also, the Dmax under setting [1] was 50 to 70%.

As to `Cc1cnc(Nc2cccc(CN3CCC(c4ccc5c(c4)CN(C4CCC(=O)NC4=O)C5=O)CC3)c2)nc1` (stereo not drawn) [Compound 228], the DC50 was in the range of 10 to 30 nM. Besides, under setting [1], the Dmax is 50 to 70%.

`Cc1ccnc(Nc2cccc(CN3CCC(c4ccc5c(c4)CN(C4CCC(=O)NC4=O)C5=O)CC3)c2)n1` (stereo not drawn) [Compound 229] showed a DC50 of under 10 nM. Besides, the Dmax under setting [1] was 50 to 70%.

As to `O=C1CCC(N2Cc3cc(C4CCN(Cc5cccc(Nc6ncc(F)cn6)c5F)CC4)ccc3C2=O)C(=O)N1` (stereo not drawn) [Compound 230], the DC50 was 30 to 150 nM. Besides, the Dmax under setting [1] is 50 to 70%.

Take `Cc1ccnc(Nc2cccc(CN3CCC(c4ccc5c(c4)CN(C4CCC(=O)NC4=O)C5=O)CC3)c2F)n1` (stereo not drawn) [Compound 231]: the DC50 is under 10 nM. In addition, under setting [1], the Dmax lay within 50 to 70%.
